Measurements from PubChem BioAssay AID324 (DTP/NCI, 2004).
“And” between values parts separate entries of the source, which are not always exact repeats. Equal values may be shown once. Toxic doses and inconclusive results are not listed.

Tested on: CD2F1 mice, AMSA-resistant P388 leukemia ip, median survival T/C
Assay: NCI In Vivo Anticancer Drug Screen. Data for tumor model P388 Leukemia resistant to AMSA; NSC 249992 (intraperitoneal) in CD2F1 (CDF1) mice
Settings: endpoint: median survival time, higher = longer survival
Protocol: The antitumor activity of compounds was measured in mice bearing transplantable tumors. Survival or tumor size were measured and the results are expressed as the measurement made in the treated group (T) divided by the measurement made in the vehicle treated control group (C). The tumor model used in this assay is P388 Leukemia resistant to AMSA; NSC 249992 (intraperitoneal) in CD2F1 (CDF1) mice

[1] = dose: 4.32 mg/kg/injection, schedule: Q04DX003 (ip), vehicle: water
[2] = dose: 7.2 mg/kg/injection, schedule: Q04DX003 (ip), vehicle: water

Question: Which results are given for `COc1cc(NS(C)(=O)=O)ccc1Nc1c2ccccc2nc2ccccc12`?
Answer: T/C (dose: 1.56 mg/kg/injection, schedule: Q04DX003 (ip), vehicle: other): 93 % of control; T/C (dose: 2.33 mg/kg/injection, schedule: Q01DX001 (ip), vehicle: other): 111 % of control; T/C (dose: 2.59 mg/kg/injection, schedule: Q01DX001 (ip), vehicle: other): 105 % of control; T/C (dose: 2.59 mg/kg/injection, schedule: Q04DX001 (ip), vehicle: other): 105 % of control; T/C (dose: 2.59 mg/kg/injection, schedule: Q04DX002 (ip), vehicle: other): 111 % of control and 116 % of control; T/C (dose: 2.59 mg/kg/injection, schedule: Q04DX003 (ip), vehicle: clinical formulation): 106 % of control; T/C (dose: 2.59 mg/kg/injection, schedule: Q04DX003 (ip), vehicle: other): 98 % of control and 100 % of control and 106 % of control; T/C (dose: 2.59 mg/kg/injection, schedule: Q04DX003 (ip), vehicle: water): 98 % of control and 100 % of control and 104 % of control; T/C (dose: 3.89 mg/kg/injection, schedule: Q01DX001 (ip), vehicle: other): 109 % of control; T/C (dose: 4.32 mg/kg/injection, schedule: Q01DX001 (ip), vehicle: other): 105 % of control; T/C (dose: 4.32 mg/kg/injection, schedule: Q04DX001 (ip), vehicle: other): 105 % of control; T/C (dose: 4.32 mg/kg/injection, schedule: Q04DX002 (ip), vehicle: other): 117 % of control and 120 % of control; T/C (dose: 4.32 mg/kg/injection, schedule: Q04DX003 (ip), vehicle: clinical formulation): 123 % of control; T/C (dose: 4.32 mg/kg/injection, schedule: Q04DX003 (ip), vehicle: other): 91 % of control and 101 % of control and 108 % of control; T/C [1]: 100 % of control and 101 % of control and 105 % of control; T/C (dose: 6.48 mg/kg/injection, schedule: Q01DX001 (ip), vehicle: other): 104 % of control; T/C (dose: 7.2 mg/kg/injection, schedule: Q01DX001 (ip), vehicle: other): 101 % of control; T/C (dose: 7.2 mg/kg/injection, schedule: Q04DX001 (ip), vehicle: other): 101 % of control; T/C (dose: 7.2 mg/kg/injection, schedule: Q04DX002 (ip), vehicle: other): 101 % of control and 114 % of control; T/C (dose: 7.2 mg/kg/injection, schedule: Q04DX003 (ip), vehicle: clinical formulation): 124 % of control; T/C (dose: 7.2 mg/kg/injection, schedule: Q04DX003 (ip), vehicle: other): 97 % of control and 110 % of control and 89 % of control; T/C [2]: 102 % of control and 107 % of control and 113 % of control; T/C (dose: 10.0 mg/kg/injection, schedule: Q04DX003 (ip), vehicle: saline with Tween-80): 120 % of control; T/C (dose: 10.8 mg/kg/injection, schedule: Q01DX001 (ip), vehicle: other): 100 % of control; T/C (dose: 12.0 mg/kg/injection, schedule: Q01DX001 (ip), vehicle: other): 99 % of control; T/C (dose: 12.0 mg/kg/injection, schedule: Q04DX001 (ip), vehicle: other): 99 % of control; T/C (dose: 12.0 mg/kg/injection, schedule: Q04DX002 (ip), vehicle: other): 119 % of control and 120 % of control; T/C (dose: 12.0 mg/kg/injection, schedule: Q04DX003 (ip), vehicle: other): 90 % of control and 103 % of control (2×); T/C (dose: 12.0 mg/kg/injection, schedule: Q04DX003 (ip), vehicle: water): 102 % of control; T/C (dose: 18.0 mg/kg/injection, schedule: Q01DX001 (ip), vehicle: other): 110 % of control; T/C (dose: 20.0 mg/kg/injection, schedule: Q01DX001 (ip), vehicle: other): 90 % of control; T/C (dose: 20.0 mg/kg/injection, schedule: Q04DX001 (ip), vehicle: other): 90 % of control; T/C (dose: 20.0 mg/kg/injection, schedule: Q04DX002 (ip), vehicle: other): 92 % of control and 111 % of control; T/C (dose: 20.0 mg/kg/injection, schedule: Q04DX003 (ip), vehicle: other): 106 % of control; T/C (dose: 30.0 mg/kg/injection, schedule: Q01DX001 (ip), vehicle: other): 105 % of control

Question: How did the T/C (dose: 13.0 mg/kg/injection, schedule: Q04DX003 (ip), vehicle: saline) turn out when `O=C1c2ccccc2C(=O)c2c(NCCNCCO)ccc(NCCNCCO)c21` was run?
Answer: 103 % of control

Question: What about the T/C (dose: 21.6 mg/kg/injection, schedule: Q04DX003 (ip), vehicle: saline) of the same compound?
Answer: 103 % of control

Question: And the T/C (dose: 36.0 mg/kg/injection, schedule: Q04DX003 (ip), vehicle: saline)?
Answer: 103 % of control

Question: What about the T/C (dose: 60.0 mg/kg/injection, schedule: Q04DX003 (ip), vehicle: saline) of the same compound?
Answer: 108 % of control

Question: What about the T/C (dose: 100.0 mg/kg/injection, schedule: Q04DX003 (ip), vehicle: saline) of the same compound?
Answer: 113 % of control

Question: Which results are given for `CCCCC(=O)N(c1ccc(Nc2c3ccccc3nc3cc([N+](=O)[O-])ccc23)cc1)S(C)(=O)=O`?
Answer: T/C (dose: 10.8 mg/kg/injection, schedule: Q04DX003 (ip), vehicle: water): 100 % of control; T/C (dose: 18.0 mg/kg/injection, schedule: Q04DX003 (ip), vehicle: water): 96 % of control; T/C (dose: 30.0 mg/kg/injection, schedule: Q04DX003 (ip), vehicle: water): 95 % of control; T/C (dose: 50.0 mg/kg/injection, schedule: Q04DX003 (ip), vehicle: water): 99 % of control; T/C (dose: 83.3 mg/kg/injection, schedule: Q04DX003 (ip), vehicle: water): 91 % of control

Question: Which T/C [1] does the source give for `CC[C@@]1(O)C[C@H](OC2CC(N(C)C)C(OC3CC(O)C(OC4CCC(=O)C(C)O4)C(C)O3)C(C)O2)c2c(cc3c(c2O)C(=O)c2c(O)ccc(O)c2C3=O)[C@H]1C(=O)OC` (stereo partly specified) here?
Answer: 153 % of control and 158 % of control

Question: What about the T/C [2] of the same compound?
Answer: 123 % of control and 219 % of control

Question: For `COc1cc([C@@H]2c3cc4c(cc3[C@@H](OC3OC5CO[C@@H](c6cccs6)OC5C(O)C3O)[C@H]3COC(=O)[C@H]23)OCO4)cc(OC)c1O` (stereo partly specified), which T/C (dose: 25.0 mg/kg/injection, schedule: Q04DX003 (ip), vehicle: clinical formulation) is on record?
Answer: 90 % of control

Question: For `CCN(CC)CCNc1ccc(CO)c2sc3ccccc3c(=O)c12`, which T/C (dose: 10.36 mg/kg/injection, schedule: Q01DX005 (ip), vehicle: water) is on record?
Answer: 106 % of control

Question: And the T/C (dose: 17.28 mg/kg/injection, schedule: Q01DX005 (ip), vehicle: water)?
Answer: 117 % of control

Question: And the T/C (dose: 28.8 mg/kg/injection, schedule: Q01DX005 (ip), vehicle: water)?
Answer: 98 % of control

Question: And the T/C (dose: 48.0 mg/kg/injection, schedule: Q01DX005 (ip), vehicle: water)?
Answer: 97 % of control

Question: And the T/C (dose: 80.0 mg/kg/injection, schedule: Q01DX005 (ip), vehicle: water)?
Answer: 87 % of control

Question: For `CCN(CC)C1CC(O[C@H]2C[C@](O)(C(C)=O)Cc3c(O)c4c(c(O)c32)C(=O)c2c(OC)cccc2C4=O)OC(C)C1O` (stereo partly specified), which T/C [1] is on record?
Answer: 117 % of control

Question: What about the T/C (dose: 20.0 mg/kg/injection, schedule: Q04DX003 (ip), vehicle: water) of the same compound?
Answer: 166 % of control

Question: What does the source list for `COC(=O)C[C@](O)(CCCC(C)(C)O)C(=O)O[C@@H]1C(OC)=C[C@]23CCCN2CCc2cc4c(cc2[C@H]13)OCO4`?
Answer: T/C (dose: 1.8 mg/kg/injection, schedule: Q04DX003 (ip), vehicle: saline + alcohol): 153 % of control; T/C (dose: 3.0 mg/kg/injection, schedule: Q04DX003 (ip), vehicle: saline + alcohol): 163 % of control

Question: `O=P1(N(CCCl)CCCl)NCCCO1` (stereo unspecified) was tested. Which T/C (dose: 16.2 mg/kg/injection, schedule: Q04DX003 (ip), vehicle: saline) did it give?
Answer: 196 % of control

Question: What about the T/C (dose: 25.9 mg/kg/injection, schedule: Q04DX002 (ip), vehicle: saline) of the same compound?
Answer: 220 % of control

Question: What about the T/C (dose: 27.0 mg/kg/injection, schedule: Q04DX003 (ip), vehicle: saline) of the same compound?
Answer: 240 % of control

Question: And the T/C (dose: 32.4 mg/kg/injection, schedule: Q04DX002 (ip), vehicle: saline)?
Answer: 243 % of control

Question: What about the T/C (dose: 43.2 mg/kg/injection, schedule: Q04DX002 (ip), vehicle: saline) of the same compound?
Answer: 333 % of control

Question: And the T/C (dose: 45.0 mg/kg/injection, schedule: Q04DX003 (ip), vehicle: saline)?
Answer: 348 % of control

Question: And the T/C (dose: 54.0 mg/kg/injection, schedule: Q04DX002 (ip), vehicle: saline)?
Answer: 305 % of control

Question: What about the T/C (dose: 72.0 mg/kg/injection, schedule: Q04DX002 (ip), vehicle: saline) of the same compound?
Answer: 407 % of control

Question: What about the T/C (dose: 75.0 mg/kg/injection, schedule: Q04DX003 (ip), vehicle: saline) of the same compound?
Answer: 348 % of control

Question: What about the T/C (dose: 90.0 mg/kg/injection, schedule: Q04DX002 (ip), vehicle: saline) of the same compound?
Answer: 416 % of control

Question: What about the T/C (dose: 120.0 mg/kg/injection, schedule: Q04DX002 (ip), vehicle: saline) of the same compound?
Answer: 416 % of control

Question: What about the T/C (dose: 125.0 mg/kg/injection, schedule: Q04DX003 (ip), vehicle: saline) of the same compound?
Answer: 348 % of control

Question: And the T/C (dose: 150.0 mg/kg/injection, schedule: Q04DX002 (ip), vehicle: saline)?
Answer: 416 % of control

Question: And the T/C (dose: 200.0 mg/kg/injection, schedule: Q04DX002 (ip), vehicle: saline)?
Answer: 164 % of control
